Earlier results on five molecules are cited in patent publication US20070208041A1, “Compositions for the treatment and prevention of heart disease and methods of using same” (priority 2005, published 2007).

The subject of data set [1] is phenylephrine-constricted rat aorta.
For data set [2] the following is noted: allopurinol alone.

For the molecule `O=[N+]([O-])OCC(CO[N+](=O)[O-])O[N+](=O)[O-]` [GTN], the “effect of ALDH-2 inhibitor benomyl on vasodilator response” value (“effect of ALDH-2 inhibitor benomyl” below) in data set [1] was “reduced the vasodilator potency, but not the efficacy”.

As to `O=[N+]([O-])O[C@@H]1CO[C@H]2[C@@H]1OC[C@@H]2O` [isosorbide-5-mononitrate, 1,4:3,6-dianhydrosorbitol 5-mononitrate], the “effect of ALDH-2 inhibitor benomyl” value in data set [1] is “not affected”.

For the molecule `O=[N+]([O-])OCC(CO)(CO)CO` [pentaerythritol mononitrate], in data set [1], the “effect of ALDH-2 inhibitor benomyl” value is recorded as “not affected”.

With `O=[N+]([O-])O[C@H]1CO[C@H]2[C@@H]1OC[C@H]2O[N+](=O)[O-]` [isosorbide dinitrate, 1,4:3,6-dianhydrosorbitol 2,5-dinitrate], in data set [1], the “effect of ALDH-2 inhibitor benomyl” value is given as “not affected”.

Turning to `Oc1ncnc2[nH]ncc12` [allopurinol], the “outcome of clinical trials” value in data set [2] is “not successful”.
